Here are results for two compounds from ChEMBL document CHEMBL5537180, “Discovery of Novel Aminobutanoic Acid-Based ASCT2 Inhibitors for the Treatment of Non-Small-Cell Lung Cancer” (J Med Chem, 2024).

The source made the active and inactive calls. No cut-off for these calls is given here.

A short description of data set [1]: AUC (0 to t) in Sprague-Dawley rat at 10 mg/kg, ip incubated for 24 hrs by LC-MS/MS analysis. It counts as ADME, organism-based. The conditions noted are these: in vivo.
Data set [2] relates to Cell membrane. Description: Induction of mitochondrial membrane potential loss in human A549 cells assessed as […] aggregates at 10 uM incubated for 24 hrs by JC-1 staining based flow cytometry analysis (reference value: 93.8%). Format: cell membranes.
In data set [3] the test system is A549. Description: Induction of autophagy in human A549 cells assessed as downregulation of ERK expression at 5 to 10 uM measured after 24 hrs by Western blot analysis. The conditions noted are these: dose 5-10 µM. Format: functional, cell-based.
The test system of data set [4] is A549. Description: Inhibition of AKT/mTORC signalling in human A549 cells assessed as decrease in AKT phosphorylation level at 5 to 10 uM measured after 24 hrs by Western blot analysis. The conditions noted are these: dose 5-10 µM. It counts as cell-based. (In western blotting, separated proteins are transferred to a membrane and probed.)
Data set [5] in a line: Toxicity in BALB/c nude mouse assessed as effect on kidney at 25 to 50 mg/kg, ip measured after 3 weeks by H and E staining based analysis. Format: organism-based. The conditions noted are these: in vivo, 504 h, dose 25-50 mg/kg.
The nature of data set [6]: Toxicity in BALB/c nude mouse assessed as effect on heart at 25 to 50 mg/kg, ip measured after 3 weeks by H and E staining based analysis. It counts as organism-based. The conditions noted are these: in vivo, 504 h, dose 25-50 mg/kg.
The test system of data set [7] is Cell membrane. Briefly: Induction of mitochondrial membrane potential loss in human A549 cells assessed as […] aggregates incubated for 24 hrs by JC-1 staining based flow cytometry analysis. It counts as cell membranes. The conditions noted are these: dose 5-10 µM. In general terms: A flow cytometer gives signals particle by particle.
In data set [8] the test system is A549. Description: Induction of autophagy in human A549 cells assessed as downregulation of AKT phosphorylation level at 5 to 10 uM measured after 24 hrs by Western blot analysis. Format: functional, cell-based. The conditions noted are these: dose 5-10 µM.
Data set [9] deals with T1, Neutral amino acid transporter B(0) (Homo sapiens) (UniProt Q15758).
T1 sequence (whole entry): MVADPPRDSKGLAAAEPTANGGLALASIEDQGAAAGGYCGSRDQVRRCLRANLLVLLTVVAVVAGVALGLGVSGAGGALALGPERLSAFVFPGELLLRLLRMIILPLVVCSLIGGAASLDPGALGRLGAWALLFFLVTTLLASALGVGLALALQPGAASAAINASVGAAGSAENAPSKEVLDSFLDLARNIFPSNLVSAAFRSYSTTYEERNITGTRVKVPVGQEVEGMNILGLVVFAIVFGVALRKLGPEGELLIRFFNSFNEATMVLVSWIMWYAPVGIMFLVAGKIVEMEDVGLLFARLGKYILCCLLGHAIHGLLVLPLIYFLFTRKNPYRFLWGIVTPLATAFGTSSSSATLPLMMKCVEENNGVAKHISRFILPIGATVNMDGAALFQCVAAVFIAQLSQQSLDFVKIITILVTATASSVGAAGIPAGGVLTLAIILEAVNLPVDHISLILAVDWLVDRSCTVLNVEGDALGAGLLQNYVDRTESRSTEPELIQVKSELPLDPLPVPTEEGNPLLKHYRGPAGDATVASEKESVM
Briefly: Inhibition of ASCT2 in HEK293 cells assessed as reduction in [13C]-Gln uptake at 50 uM relative to control. It counts as cell-based.

The target of data set [10] is T2, Sodium-coupled neutral amino acid symporter 1 (Homo sapiens) (UniProt Q9H2H9).
T2 sequence (whole entry): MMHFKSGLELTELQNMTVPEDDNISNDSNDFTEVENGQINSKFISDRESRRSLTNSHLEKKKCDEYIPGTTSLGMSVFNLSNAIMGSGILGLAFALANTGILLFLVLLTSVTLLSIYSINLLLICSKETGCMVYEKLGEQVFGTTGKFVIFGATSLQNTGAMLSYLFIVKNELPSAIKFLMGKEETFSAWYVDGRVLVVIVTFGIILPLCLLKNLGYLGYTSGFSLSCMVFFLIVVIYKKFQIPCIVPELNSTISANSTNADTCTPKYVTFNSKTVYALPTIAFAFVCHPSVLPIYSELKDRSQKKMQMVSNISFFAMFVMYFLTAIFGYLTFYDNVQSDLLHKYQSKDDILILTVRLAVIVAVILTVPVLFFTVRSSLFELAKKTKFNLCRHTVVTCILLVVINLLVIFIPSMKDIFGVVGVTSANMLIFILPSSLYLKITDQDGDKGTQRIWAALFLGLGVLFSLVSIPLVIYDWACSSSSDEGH
Description: Inhibition of SNAT1 (unknown origin) overexpressed in HEK293 cells assessed as reduction in [13C]-Gln uptake preincubated for 5 mins followed by substrate addition and measured after 15 mins. Format: cell-based. The conditions noted are these: time 20.0 min.

Data set [11] relates to A549. Briefly: Antitumor activity against human A549 cells xenografted in BALB/c nude mouse assessed as decrease in tumor weight at 25 to 50 mg/kg, ip measured daily for 3 weeks. The conditions noted are these: dose 25-50 mg/kg. It counts as functional, organism-based.
Data set [12] deals with T1, Neutral amino acid transporter B(0) (Homo sapiens). Briefly: Inhibition of ASCT2 in human A549 cells assessed as reduction in [13C]-Gln uptake at 50 uM relative to control. It counts as cell-based.
A short description of data set [13]: Toxicity in BALB/c nude mouse assessed as effect on lung at 25 to 50 mg/kg, ip measured after 3 weeks by H and E staining based analysis. The conditions noted are these: in vivo, 504 h, dose 25-50 mg/kg. Format: organism-based.
Data set [14] concerns NSCLC. Description: Antiproliferative activity against human NSCLC cells cultured as HCC827 organoids assessed as cell viability incubated for 96 hrs by Celltiter-glo viability assay. Format: functional, cell-based. (Cellular ATP, detected with luciferase, serves as a proxy for viable cell number.)
Data set [15] in a line: Apparent clearance in Sprague-Dawley rat at 10 mg/kg, ip incubated for 24 hrs by LC-MS/MS analysis. Format: ADME, organism-based. The conditions noted are these: in vivo.
The test system of data set [16] is A549. Briefly: Inhibition of AKT/mTORC signalling in human A549 cells assessed as decrease in mTORC1 level at 5 to 10 uM measured after 24 hrs by Western blot analysis. Format: cell-based. The conditions noted are these: dose 5-10 µM.
Data set [17] concerns A549. Description: Induction of apoptosis in human A549 cells measured after 24 hrs by annexin-V/PI staining based flow cytometry analysis. Format: functional, cell-based. The conditions noted are these: dose 5-10 µM.
Data set [18] can be described thus: Metabolic stability in rat liver microsomes assessed as intrinsic clearance. The conditions noted are these: read-out: CLH. It counts as ADME, Microsome.
Data set [19] has as its target T3, Neutral amino acid transporter B(0) (Homo sapiens, UniProt Q15758).
T3 sequence (Q15758 whole entry): T1 sequence (whole entry)
Description: Inhibition of ASCT2 in HEK293 cells assessed as reduction in glutamine uptake preincubated for 5 mins followed by substrate addition and measured after 15 mins. It counts as cell-based.

Data set [20] deals with A549. Briefly: Antitumor activity against human A549 cells xenografted in BALB/c nude mouse assessed as tumor growth inhibition at 25 mg/kg, ip measured daily for 3 weeks relative to control. It counts as functional. The conditions noted are these: A549, 504 h, read-out: TGI.
Data set [21] is described as follows: AUC (0 to infinity) in Sprague-Dawley rat at 10 mg/kg, ip incubated for 24 hrs by LC-MS/MS analysis. Format: ADME, organism-based. The conditions noted are these: in vivo.
Data set [22] is described as follows: Toxicity in BALB/c nude mouse assessed as effect on body weight at 25 to 50 mg/kg, ip measured daily for 3 weeks. It counts as organism-based. The conditions noted are these: in vivo, 504 h, dose 25-50 mg/kg.

Consider `N[C@@H](CCN(Cc1ccccc1OCC#Cc1ccc(Cl)cc1)Cc1ccccc1OCC#Cc1ccc(Cl)cc1)C(=O)O`, for which, in data set [1], the exposure AUC(0-t) at 24 h was determined as 2670 ng·h/mL. Moreover, the Activity is 82.4% in [2]; “Toxic” in [5]; “Toxic” in [6]; “Dose-Dependent Effect” in data set [7]; “Toxic” in [13]; “Dose-Dependent Effect” in data set [17]. Moreover, the Activity entry in data set [22] is listed as “Non-Toxic”. Besides, the outcome in data set [3], in [8] and in data set [11] was Active. For the same compound, the inhibition entry in data set [4] and in [16] was “Active” throughout. Besides, the inhibition worked out at 93.2% in [9] and 90.8% in data set [12]. Besides, in data set [10], the inhibition entry was “inactive”. The concentration for half-maximal inhibition (IC50) in data set [14] was determined as 22.4 µM; in data set [19], 3.5 µM. The apparent clearance CL/F in data set [15] was 60.5 mL/min/kg. In addition, the microsomal CLint in data set [18] came to 37.5 µL/min/mg. In addition, in data set [20], the inhibition in vivo at 25 mg/kg came out at 65%. In data set [21], this compound had an AUC(0-inf) of 2820 ng·h/mL.

Take `CC(C)(C)c1ccc(OCC#Cc2ccccc2)c(CN(CC[C@H](N)C(=O)O)Cc2cc(C(C)(C)C)ccc2OCC#Cc2ccccc2)c1`: the AUC(0-t) at 24 h in [1] is 13800 ng·h/mL. Moreover, the Activity was 60.3% in data set [2]; “Toxic” in data set [5]; “Toxic” in [6]; “Dose-Dependent Effect” in data set [7]; “Toxic” in data set [13]; “Dose-Dependent Effect” in data set [17]. The Activity result in data set [22] is reported as “Non-Toxic”. Further, the result in [3], in [8] and in data set [11] was Active. For the same compound, the inhibition entry in [4] and in data set [16] was “Active” in each case. Also, the inhibition was 98.3% in data set [9] and 55.6% in data set [12]. In addition, the inhibition result in data set [10] is “inactive”. Further, the half-maximal inhibitory concentration (IC50) was 2.36 µM in data set [14] and 5.14 µM in data set [19]. Besides, the CL/F in data set [15] was 12 mL/min/kg. The microsomal CLint in data set [18] came out at 8.27 µL/min/mg. For the same compound, in data set [20], the inhibition in vivo at 25 mg/kg came out at 70%. The compound also displayed an area under the curve AUC(0-inf) in data set [21] of 14500 ng·h/mL.

In general, AUC(0-t) refers to exposure summed from dosing to a finite time, without extrapolation to infinity. As usually defined, the inhibition is the drop in the measured response relative to a control, in per cent. A word on the IC50: it is the concentration that gives 50% inhibition. What is called CL/F is the apparent clearance, not corrected for the fraction that reaches the circulation. Usually AUC(0-inf) stands for the area under the concentration-time curve extrapolated to infinity.
